Patent publication US8394783B2, “Polysaccharide gel formulation having multi-stage bioactive agent delivery” (Allergan, Inc., priority 2007, dated 2013)

Tests used:
Hyaluronidase [1] = test: Enzymatic degradation study (Morgan-Elson colorimetric assay); format: biochemical; conditions: generally an order of magnitude less TA gives the same inhibition as CSA
Protocol: The HA filling gels prepared in Examples 1 and 2, were evaluated for resistance to enzymatic degradation using the Morgan-Elson colorimetric assay. This assay was applied to estimate the extend of enzymatic degradation by measuring changes in the molecular weight of the HA chains.
Hyaluronidase (0.1-10 mg) was added to each HA formulation, incubated for 10-250 mins at 37° C. followed by addition of 0.1 mL of a 0.8 M potassium tetraborate solution and heating at 100° C. for 10 min. The samples were supplemented with 3 mL of a 10% (wt) p-dimethylaminobenzaldehyde solution in acetic acid and incubated at 37° C. for 10-120 mins. The process was repeated for each HA formulation, omitting the enzyme addition, to prepare a control sample. The change in the optical density (OD) at 585 nm between the enzymatically degraded sample and the control sample was used to quantify the extent of degradation for each formulation.

Hyaluronidase [2] = test: Enzymatic degradation study (SEC-MALS soluble HA assay); format: biochemical
Description: The HA filling gels prepared in Examples 1 and 2, were further evaluated for resistance to enzymatic degradation by using a SEC-MALS (Size Exclusion Multi-Angle Light Scattering) based soluble HA assay. This assay was applied to quantify degradation by evaluating the soluble HA content in each sample (defined as the portion of the gel that can pass through a 0.2-1.0 μm filter). The difference in the soluble HA content, between an enzymatically degraded sample and a control sample was used to quantify the extent of degradation for each HA formulation.
The SEC-MALS tests were performed using an Agilent size exclusion chromatography system equipped with Wyatt light scattering and refractive index units. Hyaluronidase (0.1-10 mg) was added to each HA formulation, incubated for 10-250 mins at 37° C. followed by addition of 0.1 ml of a 0.8 M potassium tetraborate solution and heating at 100° C. for 10 mins. The samples were diluted in PBS, filtered through a 0.2-1.0 μm filter and injected into the SEC-MALS system. The process was repeated for each HA formulation, omitting the enzyme addition, to prepare a control sample. The soluble HA content of the enzymatically degraded sample, the control sample as well as the difference between the two is summarized in FIG. 3.

inhibitory activity of TA compared with CSA (Hyaluronidase [1]): higher inhibitory activity than CSA | inhibitory activity of TA compared with CSA (Hyaluronidase [2]): significantly higher than that of CSA
Compound: O=C(OC[C@H]1O[C@@H](OC(=O)c2cc(O)c(O)c(OC(=O)c3cc(O)c(O)c(O)c3)c2)[C@H](OC(=O)c2cc(O)c(O)c(OC(=O)c3cc(O)c(O)c(O)c3)c2)[C@@H](OC(=O)c2cc(O)c(O)c(OC(=O)c3cc(O)c(O)c(O)c3)c2)[C@@H]1OC(=O)c1cc(O)c(O)c(OC(=O)c2cc(O)c(O)c(O)c2)c1)c1cc(O)c(O)c(OC(=O)c2cc(O)c(O)c(O)c2)c1 [TA, tannic acid]
